Test results taken from patent US20030170194A1, “Pharmaceutical and/or cosmetic composition containing an organosiloxane and a phospholipid” (priority 2000, published 2003).

Type: physicochemical
Details: composition of 10% by weight phospholipid and 90% by weight hexamethyldisiloxane

Clc1ccccc1C(c1ccccc1)(c1ccccc1)n1ccnc1 [clotrimazole]
dissolves in higher concentration than in hexamethyldisiloxane alone: 10 fold
